Test results published in patent publication US6737383B1, “Herbicidal oxadiazolidines” (priority 1999, dated 2004).

Key:
[1] = test system: pigweed; assay: Test B pre/postemergence pigweed; type: in vivo, Amaranthus retroflexus; conditions: Preemergence
Outline: (§1)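 Herbicidal effect was estimated by eye on a ten-point control scale after plants spent twelve to sixteen days in a greenhouse following soil or foliar treatment. Foliar sprays targeted plants at one to four leaves; all doses were formulated in a non-phytotoxic solvent with surfactant.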

[2] = test system: wild oat; assay: Test B pre/postemergence wild oat; type: in vivo, Avena fatua; conditions: Preemergence
Outline: as §1

[3] = test system: blackgrass; assay: Test B pre/postemergence blackgrass; type: in vivo, Alopecurus myosuroides; conditions: Preemergence
Outline: as §1

[4] = test system: velvetleaf; assay: Test B pre/postemergence velvetleaf; type: in vivo, Abutilon theophrasti; conditions: Preemergence
Outline: as §1

[5] = test system: morningglory; assay: Test B pre/postemergence morningglory; type: in vivo, Ipomoea hederacea; conditions: Preemergence
Outline: as §1

[6] = test system: cocklebur; assay: Test B pre/postemergence cocklebur; type: in vivo, Xanthium strumarium; conditions: Preemergence
Outline: as §1

[7] = test system: bamyardgrass; assay: Test B flood test barnyardgrass; type: in vivo, Echinochloa crus-galli
Outline: (§2)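 Read-out is a visual response score from 0 (no effect) to 10 (complete control), assigned by comparison with untreated controls. Treatment was applied at the 2-leaf stage, and plants stayed in the greenhouse for twelve to sixteen days before scoring.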

[8] = test system: rape; assay: Test B pre/postemergence rape; type: in vivo, Brassica napus; conditions: Preemergence
Outline: as §1

[9] = test system: giant foxtail; assay: Test B pre/postemergence giant foxtail; type: in vivo, Setaria faberii; conditions: Preemergence
Outline: as §1

[10] = test system: purple nutsedge; assay: Test B pre/postemergence purple nutsedge; type: in vivo, Cyperus rotundus; conditions: Preemergence
Outline: as §1

[11] = test system: sugar beet; assay: Test B pre/postemergence sugar beet; type: in vivo, Beta vulgaris; conditions: Preemergence
Outline: as §1

[12] = test system: wheat; assay: Test B pre/postemergence wheat; type: in vivo, Triticum aestivum; conditions: Preemergence
Outline: as §1

[13] = test system: bedstraw; assay: Test B pre/postemergence bedstraw; type: in vivo, Galium aparine; conditions: Preemergence
Outline: as §1

[14] = test system: crabgrass; assay: Test B pre/postemergence crabgrass; type: in vivo, Digitaria sanguinalis; conditions: Preemergence
Outline: as §1

[15] = test system: smallflower flatsedge; assay: Test B flood test smallflower flatsedge; type: in vivo, Cyperus difformis
Outline: as §2

[16] = test system: duck salad; assay: Test B flood test duck salad; type: in vivo, Heteranthera limosa
Outline: as §2

[17] = test system: soybean; assay: Test B pre/postemergence soybean; type: in vivo, Glycine max; conditions: Preemergence
Outline: as §1

[18] = test system: rice; assay: Test B flood test rice; type: in vivo, Oryza sativa
Outline: as §2

[19] = test system: surinam grass; assay: Test B pre/postemergence surinam grass; type: in vivo, Brachiaria decumbens; conditions: Preemergence
Outline: as §1

[20] = test system: corn; assay: Test B pre/postemergence corn; type: in vivo, Zea mays; conditions: Preemergence
Outline: as §1

[21] = test system: maize hybrid P33G26; assay: Test G maize injury with safener-treated seed; conditions: in vivo
Description: In soil-containing pots were planted seeds of maize hybrid P33G26 that was previously treated with dichlomid, fenchlorazole-ethyl, and naphthalic anhydride (or no safener). The soil surface was then treated with several rates of Compound 131 or Compound 146 dissolved in a non-phytotoxic solvent using a flat-fan sprayer calibrated to deliver 310 L/ha. Treatmemtes were replicated 4 or 5 times. The treated and untreated plants were allowed to grow in a greenhouse using supplementary artificial lighting with a day-length of 14 hours, with the temperature maintained at about 27° C. during the day and 24° C. during the night. Plants were kept watered with a dilute balanced fertilizer solution.
At 28 days after application, the treated plants were compared with untreated controls and vissually evaluated.

[22] = Rate 125 g/ha, scale of 0 to 10 where 0 is no effect and 10 is complete control
[23] = Rate 250 g/ha, scale 0 (no effect) to 10 (complete control)
[24] = Rate 500 g/ha, scale 0 to 10 (0 no effect, 10 complete control)
[25] = Rate 1000 g/ha, scale 0 to 10 (0 no effect, 10 complete control)
[26] = Pre-emergence, Rate 62 g/ha, scale 0 to 10, 0 is no effect, 10 is complete control
[27] = Rate 125 g/ha, Pre-emergence section (flood test species), scale 0 to 10, 0 no effect, 10 complete control
[28] = Rate 250 g/ha, Pre-emergence (flood test species), scale 0 to 10, 0 is no effect, 10 is complete control
[29] = Rate 500 g/ha, Pre-emergence section of Table B, 0 to 10 scale (0 no effect, 10 complete control)

## COC(=O)C(c1ccccc1)n1c(=O)on(C(=O)N(c2ccc(Cl)cc2)C(C)C)c1=O (stereo not shown) [Compound 724]
[1]; [22]
  Plant response rating, Redroot pigweed: 0
[1]; [23]
  Redroot pigweed plant response rating: 0
[1]; [24]
  Redroot pigweed plant response rating: 0
[1]; [25]
  Plant response rating, Redroot pigweed: 3
[2]; [22]
  Plant response rating, Wild oats: 0
[2]; [23]
  Wild oats plant response rating: 0
[2]; [24]
  Wild oats plant response rating: 0
[2]; [25]
  Plant response rating, Wild oats: 0
[3]; [22]
  Plant response rating, Blackgrass: 0
[3]; [23]
  Blackgrass plant response rating: 0
[3]; [24]
  Blackgrass plant response rating: 0
[3]; [25]
  Plant response rating, Blackgrass: 2
[4]; [22]
  Plant response rating, Velvetleaf: 0
[4]; [23]
  Velvetleaf plant response rating: 0
[4]; [24]
  Velvetleaf plant response rating: 0
[4]; [25]
  Plant response rating, Velvetleaf: 0
[5]; [22]
  Plant response rating, Morningglory: 0
[5]; [23]
  Morningglory plant response rating: 0
[5]; [24]
  Morningglory plant response rating: 0
[5]; [25]
  Plant response rating, Morningglory: 0
[6]; [22]
  Plant response rating, Cocklebur: 0
[6]; [23]
  Cocklebur plant response rating: 0
[6]; [24]
  Cocklebur plant response rating: 0
[6]; [25]
  Plant response rating, Cocklebur: 0
[7]; [26]
  Barnyardgrass plant response rating: 0
[7]; [27]
  Barnyardgrass plant response rating: 0
[7]; [28]
  Barnyardgrass plant response rating: 0
[7]; [29]
  Barnyardgrass plant response rating: 0
[8]; [22]
  Plant response rating, Rape: 0
[8]; [23]
  Rape plant response rating: 0
[8]; [24]
  Rape plant response rating: 0
[8]; [25]
  Plant response rating, Rape: 0
[9]; [22]
  Plant response rating, Giant foxtail: 0
[9]; [23]
  Giant foxtail plant response rating: 7
[9]; [24]
  Giant foxtail plant response rating: 9
[9]; [25]
  Plant response rating, Giant foxtail: 10
[10]; [22]
  Plant response rating, Nutsedge: 0
[10]; [23]
  Nutsedge plant response rating: 0
[10]; [24]
  Nutsedge plant response rating: 0
[10]; [25]
  Plant response rating, Nutsedge: 0
[11]; [22]
  Plant response rating, Sugarbeets: 0
[11]; [23]
  Sugarbeets plant response rating: 0
[11]; [24]
  Sugarbeets plant response rating: 0
[11]; [25]
  Plant response rating, Sugarbeets: 0
[12]; [22]
  Plant response rating, Wheat: 0
[12]; [23]
  Wheat plant response rating: 0
[12]; [24]
  Wheat plant response rating: 0
[12]; [25]
  Plant response rating, Wheat: 0
[13]; [22]
  Plant response rating, Bedstraw: 0
[13]; [23]
  Bedstraw plant response rating: 0
[13]; [24]
  Bedstraw plant response rating: 0
[13]; [25]
  Plant response rating, Bedstraw: 0
[14]; [22]
  Plant response rating, Crabgrass: 3
[14]; [23]
  Crabgrass plant response rating: 7
[14]; [24]
  Crabgrass plant response rating: 7
[14]; [25]
  Plant response rating, Crabgrass: 9
[15]; [26]
  S. Flatsedge plant response rating: 0
[15]; [27]
  S. Flatsedge plant response rating: 0
[15]; [28]
  S. Flatsedge plant response rating: 0
[15]; [29]
  S. Flatsedge plant response rating: 0
[16]; [26]
  Ducksalad plant response rating: 0
[16]; [27]
  Ducksalad plant response rating: 0
[16]; [28]
  Ducksalad plant response rating: 0
[16]; [29]
  Ducksalad plant response rating: 0
[17]; [22]
  Plant response rating, Soybean: 0
[17]; [23]
  Soybean plant response rating: 0
[17]; [24]
  Soybean plant response rating: 0
[17]; [25]
  Plant response rating, Soybean: 0
[18]; [26]
  Rice plant response rating: 0
[18]; [27]
  Rice plant response rating: 0
[18]; [28]
  Rice plant response rating: 0
[18]; [29]
  Rice plant response rating: 0
[19]; [22]
  Plant response rating, B. signalgrass: 0
[19]; [23]
  B. signalgrass plant response rating: 0
[19]; [24]
  B. signalgrass plant response rating: 0
[19]; [25]
  Plant response rating, B. signalgrass: 0
[20]; [22]
  Plant response rating, Corn: 0
[20]; [23]
  Corn plant response rating: 0
[20]; [24]
  Corn plant response rating: 0
[20]; [25]
  Plant response rating, Corn: 0

## O=C1OC(=O)c2cccc3cccc1c23 [naphthalic anhydride, reference compound]
[21]
  Effect of safener seed treatment on corn germination: severely inhibited corn germination
  Safening effect on maize injury: safened against the herbicide damage
